Experimental findings from BindingDB's records for patent US12473289 (Amgen, 2025) are described below.

Sequence of Acyl-CoA (8-3)-desaturase (O60427 whole entry): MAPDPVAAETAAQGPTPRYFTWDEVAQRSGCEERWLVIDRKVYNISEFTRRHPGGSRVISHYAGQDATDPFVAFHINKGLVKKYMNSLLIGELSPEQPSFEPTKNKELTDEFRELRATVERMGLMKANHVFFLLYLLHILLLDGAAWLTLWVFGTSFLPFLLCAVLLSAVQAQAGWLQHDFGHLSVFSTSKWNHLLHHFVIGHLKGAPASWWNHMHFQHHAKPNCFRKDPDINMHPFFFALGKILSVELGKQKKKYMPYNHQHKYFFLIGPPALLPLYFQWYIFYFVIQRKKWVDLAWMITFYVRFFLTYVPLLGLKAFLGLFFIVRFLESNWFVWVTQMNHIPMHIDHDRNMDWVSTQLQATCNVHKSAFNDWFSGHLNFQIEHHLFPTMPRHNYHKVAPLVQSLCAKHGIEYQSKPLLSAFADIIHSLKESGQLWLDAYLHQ

For the experiment, the target named is Acyl-CoA (8-3)-desaturase (Homo sapiens, UniProt O60427). Put plainly: Inhibitory Activity using DGLA-CoA and Arachidonyl-CoA Mass Spectrometric Assays. How it is done:
Membrane preparations of D5D-overexpressing HEK293 6E cells were prepared in which the total protein concentration was 5.6 mg/mL.
`COC(=O)c1ccn2c(=O)c(-c3ccc(OCC(F)(F)F)cc3)c(C(F)(F)F)nc2c1` [US12473289, Example 1-36] registered an IC50 of 199 nM.
For `O=c1c(-c2ccc(OCC(F)(F)F)cc2)c(C(F)(F)F)nc2cc(C(F)F)ccn12` [US12473289, Example 32] the value was 141 nM.
For `O=c1ccn2c(=O)c(-c3cnn(CC(F)(F)C(F)(F)F)c3)c(C(F)(F)F)[nH]c2c1` [US12473289, Example 18] the value was 132 nM; for `O=C1C(C2C=NN(CC(F)(F)C(F)(F)F)C2)=C(C(F)(F)F)NC2C=C(OCF)C=NN12` (stereo unspecified) [US12473289, Example 47], 33.5 nM; for `O=C1C(C2C=NN(CC(F)(F)C(F)(F)F)C2)=C(C(F)(F)F)NC2C=C(OCCl)C=NN12` (stereo unspecified) [US12473289, Example 48], 119 nM.
The same measure for `COc1cc2nc(C(F)(F)F)c(-c3cnn(C[C@@H]4CC4(F)F)c3)c(=O)n2cc1F` [US12473289, Example 72]: 54.9 nM; for `O=C1C(C2C=NN(CC(F)(F)C(F)(F)F)C2)=C(C(F)(F)F)NC2C=C(OCCl)C=CN12` (stereo unspecified) [US12473289, Example 46]: 16.6 nM; for `COC1=CC2NC(C(F)(F)F)=C(C3C=NC(OCC(F)(F)F)=NC3)C(=O)N2C=C1` (stereo unspecified) [US12473289, Example 37]: 87.6 nM.
`CSc1ccn2c(=O)c(-c3ccc(OCC(F)(F)F)cc3)c(C(F)(F)F)nc2c1` [US12473289, Example 1-35]: the IC50 was found to be 10.4 nM.
`COc1ccn2c(=O)c(-c3ccc(OC(F)(F)F)cc3F)c(C(F)(F)F)nc2c1` [US12473289, Example 1-9] displayed an IC50 of 5.9 nM.
For `COc1ccn2c(=O)c(-c3ccc(OCC4CC4)cc3)c(C(F)(F)F)nc2n1` [US12473289, Example 1-37] the value was 13.1 nM; for `Nc1ccn2c(=O)c(-c3ccc(OCC(F)(F)F)cc3)c(C(F)(F)F)nc2c1` [US12473289, Example 6-2], 6.8 nM; for `O=c1c(-c2cnn(CCC(F)(F)F)c2)c(C(F)(F)F)nc2cc(OCF)ccn12` [US12473289, Example 17-3], 29.6 nM.
For `O=C1C(C2C=NN(CC(F)(F)C(F)(F)F)C2)=C(C(F)(F)F)NC2C=C(OCF)C=CN12` (stereo unspecified) [US12473289, Example 45] the value was 10.1 nM; for `COc1ccn2c(=O)c(-c3cnn(-c4cccc(C(F)(F)F)c4)c3)c(C(F)(F)F)nc2c1` [US12473289, Example 1-19], 345 nM; for `COc1ccn2c(=O)c(-c3ccc(OCC(F)(F)F)nc3)c(C(F)(F)F)nc2n1` [US12473289, Example 1-70], 262 nM.

The IC50 is the midpoint of a concentration-inhibition curve. Lower therefore signals higher potency.
